Results taken from publication PMC6270814, “Effects of Ursolic Acid Derivatives on Caco-2 Cells and Their Alleviating Role in Streptozocin-Induced Type 2 Diabetic Rats” (Molecules, 2014).

Columns and labels:
Caco-2 cells [1] = test: MTT cytotoxicity assay on Caco-2 cells; assay type: cell-based, Human; details: Homo sapiens, 24 h, mean ± SD, n = 4, read-out: Inhibition Rate %
Experimental: Human intestinal Caco-2 cells (ATCC, Rockville, MD, USA) were incubated at 37 °C in a humidified atmosphere of 5% CO2 in air. The cells were cultured in Dulbecco’s […] medium (DMEM) with 10% heat-inactivated fetal bovine serum, 1% non-essential amino acids, 1% L-glutamine, 1% penicillin/streptomycin (Gibco Life Technologies, Grand Island, NY, USA). The cells were sub-cultured at confluence by 0.05% trypsin-0.5 mM EDTA treatment before they were applied in the experiment.
A MTT test was conducted to determine the possible toxicity of UA and its derivatives to Caco-2 cells. Briefly, cells were seeded at a density of 1 × 10^4 cells/mL in a 96-well plate and incubated for 24 h. The next day, cells were incubated with vehicle (0.1% DMSO) and compounds at 100, 50, 25, 12.5 μmol/L for 24 h, and then 5 g/L MTT solution (20 μL) was added for 4 h. Absorbance at 570 nm was measured using a Multimodel Plate Reader (Infinite 200, Tecan, Mannedorf, Switzerland).

Caco-2 cells [2] = test: 2-NBDG glucose uptake by Caco-2 cell monolayers, Na+-independent (sodium free buffer); assay type: cell-based, Human; details: 100 μM compound, Na+-independent (KCl/K2HPO4 buffer)
Experimental: Caco-2 cells, which were derived from human colon adenocarcinoma, were selected for intestinal absorption studies because these cells express the morphological characteristics and most of the functional properties of differentiated small-intestinal enterocytes. Caco-2 cells were seeded on 24-well plates at the density of 2 × 10^5 cells/well. The medium was changed every 1–2 days, and the culture was carried out for 13 days. Then Caco-2 cells were placed in serum-free media for 24 h and then they were washed twice with Hanks’ balanced salt solution (HBSS, pH 7.5, 140 mM NaCl, 5 mM KCl, 1.2 mM Na2HPO4, 2 mM CaCl2, 1.2 mM MgSO4, 20 mM HEPES, 0.2% bovine serum albumin) before the uptake studies. When a sodium free buffer was required, NaCl and Na2HPO4 were replaced with equal amounts of KCl and K2HPO4, respectively. After washing, the cells were incubated for 15 min at room temperature in HBSS before the commencement of this experiment. The uptake studies were initiated by adding HBSS containing either control or test solution (100 μM) and […] (100 μM) for 30 min at 37 °C. Glucose uptake was stopped by adding twofold volume of ice-cold PBS and the wells were washed with ice-cold PBS three times. Fluorescent intensity was measured by a Multimodel Plate Reader (Tecan Infinity 200) with the 485 nmex and 535 nmemiss filter set before and after adding 2-NBDG. Then the cells were lysed in 200 μL lysis buffer (10 mM Tris-HCl pH = 7.4, 150 mM NaCl, 1% Triton-x-100, 1 mM EDTA, 0.1% SDS) and supplemented immediately before they were processed with 10 μg/mL PMSF. Cells were allowed to lyse on ice, and then vortexed and sonicated. The lysate was used for protein determination, protein concentrations were determined as described by BCA kit (Boster, Wuhan, China) with bovine serum albumin as standard.

SGLT-1 = test: Western blot of SGLT-1 protein expression in Caco-2 cells; assay type: cell-based, Human; details: 100 μM, 6 h
Experimental: Caco-2 cells were cultured on 6-well plates at a density of 1 × 10^6 cells/well for 13 days. The cells were placed in serum-free medium for 24 h prior to the treatment. Then UA and its derivatives (100 μM) were added, after 6 h incubation, the cells were immediately washed three times with ice-cold PBS and lysed in 200 μL lysis buffer. Cells were allowed to lyse on ice, and then scraped, vortexed, sonicated and stored at −80 °C for further analysis. Protein concentrations were determined as described and cell lysate was subjected to western blot analysis. Briefly, proteins with same amount were denatured in sample buffer, separated on 8% SDS-PAGE gel, and transferred onto a polyvinylidene diflouride membrane. […] Membranes were then incubated overnight at 4 °C in blocking buffer with antibodies for GLUT-2, SGLT-1 and β-actin (EMD, Millipore, Billerica, MA, USA). Membranes were washed with TBST and incubated 1 h with appropriate secondary antibodies. Revelation was performed by using the enhanced chemiluminescence reagent and blue-light sensitive film. Densitometric analysis of films was performed with a Hewlett-Packard scanner equipped with a transparent adaptor and UN-SCAN-IT software.

[3] = tested on: STZ-induced diabetic rats; test: Body weight and daily food intake of STZ-induced diabetic rats; assay type: in vivo, rat
Experimental: Diabetes was induced by a single intraperitoneal injection of streptozotocin (Sigma-Aldrich, St. Louis, MO, USA) at a dose of 65 mg/kg body weight. STZ was dissolved in 0.1 M cold citrate buffer, pH 4.5. Control group were injected with citrate buffer alone. After 7 days for the development of diabetes, plasma glucose levels were determined of each rat. Rats with fasting blood glucose (FBG) range of above 16.7 mmol/L were considered as DM rats and were used for further study.
According to the body weight and plasma glucose levels the rats were divided randomly into seven groups with six rats each and treated as follows: • Group I: Normal rats treated with 0.5% CMC-Na (2 mL/200 g body weight). • Group II: Diabetic rats treated with 0.5% CMC-Na. • Group III: Diabetic rats treated with 10 mg/kg of glibenclamide. • Group IV: Diabetic rats treated with 100 mg/kg of compound 1 (UA). • Group V: Diabetic rats treated with 100 mg/kg of compound 10. • Group VI: Diabetic rats treated with 100 mg/kg of compound 11. • Group VII: Diabetic rats treated with 100 mg/kg of compound 12.
The treatment was continued daily for 28 days. Blood glucose levels and body weight were measured every week to ascertain the status of diabetes. After 4 weeks of treatment, the animals were fasted for 12 h and sacrificed by cervical dislocation under mild anaesthetization, blood was collected into heparinized tubes and centrifuged at 2,000 rpm for 10 min. Livers and kidneys were removed, washed and homogenized in ice-cold normal saline. This homogenates were centrifuged at 3,000 rpm for 10 min at 4 °C, and the supernatants were collected for the estimate of antioxidant markers.

CCC(=O)O[C@H]1CC[C@@]2(C)C(CC[C@]3(C)C2CC=C2C4[C@@H](C)[C@H](C)CC[C@]4(C(=O)O)CC[C@]23C)C1(C)C (some centres unmarked) [Compound 10]
inhibition at 100 µM (Caco-2 cells [1]): 7.84 ± 4.15% | glucose uptake, % of the control value (Na+-independent) (Caco-2 cells [2]): 70 % of the control value | effect on protein expression of SGLT-1 (SGLT-1): significantly reduce | daily food intake vs untreated diabetic rats ([3]; compounds 100 mg/kg, glibenclamide 10 mg/kg, oral): reduce daily food intake significantly | body weight vs diabetic control ([3]; end of the treatment period, 100 mg/kg): significant increase
